This note sets out measurements from US20220402900A1, “1,2,4-OXADIAZOL-5-ONE DERIVATIVES FOR THE TREATMENT OF CANCER” (Basilea Pharmaceutica International AG, priority 2019, published 2022).

The term ΔTm denotes the change in melting temperature against a reference sample. As a reminder, the IC50 is the point on the concentration scale where inhibition reaches its midpoint.

In test [1] the target is T1, human TEAD2 (amino acids 217-447) (Homo sapiens, UniProt Q15562).
T1 construct: human TEAD2 (amino acids 217-447); His-tag (N); purchased Proteros biostructures PR-0365; host or cells: E. coli
T1 sequence (Q15562 217-447): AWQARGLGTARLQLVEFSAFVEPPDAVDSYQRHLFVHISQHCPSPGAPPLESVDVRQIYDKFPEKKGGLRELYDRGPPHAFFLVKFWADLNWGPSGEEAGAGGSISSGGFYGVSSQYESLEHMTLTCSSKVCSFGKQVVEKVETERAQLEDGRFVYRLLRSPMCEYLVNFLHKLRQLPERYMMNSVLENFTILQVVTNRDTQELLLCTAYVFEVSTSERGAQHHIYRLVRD
As to the kind of experiment: Thermal shift assay (TSA). Conditions: 3 μM recombinant TEAD2, compound 7 μM, shift vs DMSO control. The test is classed as binding. As to the method: The thermal shift assay (TSA) was utilized to characterize target engagement in vitro based on ligand-dependent thermal stabilization of the protein. N-terminally His-tagged human TEAD2 (amino acids 217-447) expressed and purified from E. coli was purchased from Proteros biostructures (cat no. PR-0365). The melting reactions were performed in white, 96 well qPCR plates (Roche Diagnostics, cat. no. 04 729 692 001) in 20 mM HEPES pH 7, 100 mM NaCl in the presence of 4×SYPRO orange (Sigma, cat. no. S5692). Each well contained 3 μM recombinant TEAD2 and either DMSO (control) or experimental compounds at a final concentration of 7 μM. The total volume was 20 μL and the final DMSO concentration was 1%. The plate was sealed and analyzed in a LightCycler 480 II (Roche Diagnostics) by continuously reading the fluorescence using the 465-580 nm filter set while heating from 25° C. to 95° C. using a linear gradient of 1° C./min. Melting temperatures were determined by numerical differentiation using the LightCycler Thermal Shift Analysis software (Roche Diagnostics). The shifts in melting temperature caused by experimental compounds compared to the control are expressed as ΔTm (Table 2).

The test system of test [2] is TEAD reporter gene activity. Kind of test: TEAD reporter gene assay (MCF7 TEAD reporter cell line). The format is cell-based. Conditions: Homo sapiens; TEAD luciferase reporter in MCF7 cells, 24 hours; read-out: IC50 TEAD RGA (converted). The source says:
A TEAD reporter cell line was purchased from BPS Bioscience (cat. no. 60618). It contains the firefly luciferase gene under control of TEAD responsive elements stably integrated into the human breast cancer MCF7 cells. In proliferating cells, a basal level of unphosphorylated YAP/TAZ resides in the nucleus and drives the TEAD-dependent expression of the luciferase reporter. The cells were cultivated as recommended by the supplier. Inhibition of TEAD reporter gene activity by experimental compounds was measured using white, clear-bottom, 96 well cell culture plates (Greiner Bio-One, cat. no. 655098). The cells were seeded at a density of 20,000 cells per well in 100 μL growth medium and the plates were incubated overnight at 37° C. with 5% CO2 prior to treatment. Experimental compounds were serially diluted in DMSO to 200× the desired final concentrations. 0.5 μL aliquots of DMSO or the test samples were then mixed into the wells and the cells were further incubated for 24 hours. Luminescence was then measured on a Synergy 4 reader (BioTek) using the ONE-Glo Luciferase Assay System (Promega, cat. no. E6120) according to the manufacturer's instructions. Relative inhibition values were calculated by normalizing the raw data using DMSO-treated cells (0% inhibition) and wells devoid of cells (100% inhibition). IC50 values were calculated by fitting concentration-response data to a sigmoidal 4-parameter logistic model.

As for `N#CC1(c2ccc(Nc3nccnc3-c3noc(=O)[nH]3)cc2)CCC1` [Example 42, 1-[4-[[3-(5-oxo-4H-1,2,4-oxadiazol-3-yl)pyrazin-2-yl]amino]phenyl]cyclobutanecarbonitrile], the ΔTm at 7 µM in test [1] stood at 5.3 °C. Besides, in test [2], the IC50 was 711 nM.
With `O=C(O)COc1ccnc(Nc2ccc(C(F)(F)F)cc2)c1-c1noc(=O)[nH]1` [Example 58, 2-[[3-(5-oxo-4H-1,2,4-oxadiazol-3-yl)-2-[4-(trifluoromethyl)anilino]-4-pyridyl]oxy]acetic acid], the ΔTm at 7 µM in test [1] came to 3 °C. The IC50 in test [2] is 13700 nM.
The like results for `Cc1ccnc(Nc2ccc(C(F)(F)F)cc2)c1-c1noc(=O)[nH]1` [Example 28, 3-[4-methyl-2-[4-(trifluoromethyl)anilino]-3-pyridyl]-4H-1,2,4-oxadiazol-5-one] were, in that order, 6.1 °C and 557 nM.
For `O=c1[nH]c(-c2c(Nc3ccc(C(F)(F)F)cc3)ncc3c2CCC3)no1` [Example 49, 3-[3-[4-(trifluoromethyl)anilino]-6,7-dihydro-5H-cyclopenta[c]pyridin-4-yl]-4H-1,2,4-oxadiazol-5-one] the same measures were 0.6 °C and 649 nM.
For `O=c1[nH]c(-c2nccnc2Nc2ccc(Cl)cc2)no1` [Example 43, 3-[3-(4-chloroanilino)pyrazin-2-yl]-4H-1,2,4-oxadiazol-5-one] the same measures were 6.6 °C and 930 nM.
In the case of `O=c1[nH]c(-c2ncccc2Nc2ccc(C(F)(F)F)cc2)no1` [Example 9, 3-[3-[4-(trifluoromethyl)anilino]-2-pyridyl]-4H-1,2,4-oxadiazol-5-one], in test [1], the ΔTm at 7 µM is 9.2 °C. For the same molecule, the IC50 in test [2] was 52 nM.
For `O=c1[nH]c(-c2nccnc2Nc2cnc(C(F)(F)F)nc2)no1` [Example 23, 3-[3-[[2-(trifluoromethyl)pyrimidin-5-yl]amino]pyrazin-2-yl]-4H-1,2,4-oxadiazol-5-one] the same measures were 1.6 °C and 64 nM.
The like results for `COc1cc(Nc2nccnc2-c2noc(=O)[nH]2)ccc1C(F)(F)F` [Example 22, 3-[3-[3-methoxy-4-(trifluoromethyl)anilino]pyrazin-2-yl]-4H-1,2,4-oxadiazol-5-one] were, in that order, 6.1 °C and 70 nM.
For `O=c1[nH]c(-c2nc3ccccc3nc2Nc2ccc(C(F)(F)F)cc2)no1` [Example 37, 3-[3-[4-(trifluoromethyl)anilino]quinoxalin-2-yl]-4H-1,2,4-oxadiazol-5-one] the same measures were 12.1 °C and 188 nM.
Consider `Cc1cc(C)c(-c2noc(=O)[nH]2)c(Nc2ccc(C(F)(F)F)cc2)n1` [Example 26, 3-[4,6-dimethyl-2-[4-(trifluoromethyl)anilino]-3-pyridyl]-4H-1,2,4-oxadiazol-5-one], for which the thermal shift (ΔTm) at 7 µM in test [1] was found to be 9.2 °C. Further, the IC50 in test [2] is 433 nM.
For `O=c1[nH]c(-c2nc(CO)cnc2Nc2ccc(C(F)(F)F)cc2)no1` [Example 6, 3-[6-(hydroxymethyl)-3-[4-(trifluoromethyl)anilino]pyrazin-2-yl]-4H-1,2,4-oxadiazol-5-one] the same measures were 5 °C and 499 nM.
For `O=c1[nH]c(-c2c(OCCO)ccnc2Nc2ccc(C(F)(F)F)cc2)no1` [Example 51, 3-[4-(2-hydroxyethoxy)-2-[4-(trifluoromethyl)anilino]-3-pyridyl]-4H-1,2,4-oxadiazol-5-one] the same measures were 5.1 °C and 135 nM.
The like results for `O=c1[nH]c(-c2c(F)ccnc2Nc2ccc(C(F)(F)F)cc2)no1` [Example 13, 3-[4-fluoro-2-[4-(trifluoromethyl)anilino]-3-pyridyl]-4H-1,2,4-oxadiazol-5-one] were, in that order, 10.3 °C and 95 nM.
Regarding `CCc1ccc(Nc2nccnc2-c2noc(=O)[nH]2)cc1` [Example 17, 3-[3-(4-ethylanilino)pyrazin-2-yl]-4H-1,2,4-oxadiazol-5-one], the ΔTm at 7 µM in test [1] stood at 8.7 °C. Also, in test [2], the IC50 is 708 nM.
The like results for `CC(C)(C)Oc1ccnc(Nc2ccc(C(F)(F)F)cc2)c1-c1noc(=O)[nH]1` [Example 53, 3-[4-tert-butoxy-2-[4-(trifluoromethyl)anilino]-3-pyridyl]-4H-1,2,4-oxadiazol-5-one] were, in that order, 3.7 °C and 815 nM.
For `CC(C)(C)c1ccc(Nc2nccnc2-c2noc(=O)[nH]2)cc1` [Example 15, 3-[3-(4-tert-butylanilino)pyrazin-2-yl]-4H-1,2,4-oxadiazol-5-one] the same measures were 11.8 °C and 72 nM.
For `O=c1[nH]c(-c2c(OCCNCCO)ccnc2Nc2ccc(C(F)(F)F)cc2)no1` [Example 54, 3-[4-[2-(2-hydroxyethylamino)ethoxy]-2-[4-(trifluoromethyl)anilino]-3-pyridyl]-4H-1,2,4-oxadiazol-5-one] the same measures were 0.9 °C and 357 nM.
For `O=c1[nH]c(-c2nccnc2Nc2ccc(C(F)(F)F)cc2F)no1` [Example 25], the ΔTm at 7 µM in test [1] came out at 9.6 °C. Moreover, the IC50 in test [2] is 117 nM.
The like results for `CC(C)c1ccc(Nc2nccnc2-c2noc(=O)[nH]2)cc1` [Example 16, 3-[3-(4-isopropylanilino)pyrazin-2-yl]-4H-1,2,4-oxadiazol-5-one] were, in that order, 11.1 °C and 552 nM.
For `O=c1[nH]c(-c2nccnc2Nc2ccc(OCC3CC3)cc2)no1` [Example 14, 3-[3-[4-(cyclopropylmethoxy)anilino]pyrazin-2-yl]-4H-1,2,4-oxadiazol-5-one] the same measures were 9 °C and 2770 nM.
The like results for `O=c1[nH]c(-c2c(OC3CCNCC3)ccnc2Nc2ccc(C(F)(F)F)cc2)no1` [Example 67, 3-[4-(4-piperidyloxy)-2-[4-(trifluoromethyl)anilino]-3-pyridyl]-4H-1,2,4-oxadiazol-5-one] were, in that order, 7.1 °C and 10700 nM.
For the molecule `CC(=O)Nc1cnc(Nc2ccc(C(F)(F)F)cc2)c(-c2noc(=O)[nH]2)n1` [Example 35, N-[6-(5-oxo-4H-1,2,4-oxadiazol-3-yl)-5-[4-(trifluoromethyl)anilino]pyrazin-2-yl]acetamide], in test [1], the shift in melting temperature (ΔTm) at 7 µM turned out to be 2.5 °C. Also, the IC50 in test [2] was 3830 nM.
The like results for `CC(=O)NCCOc1ccnc(Nc2ccc(C(F)(F)F)cc2)c1-c1noc(=O)[nH]1` [Example 56, N-[2-[[3-(5-oxo-4H-1,2,4-oxadiazol-3-yl)-2-[4-(trifluoromethyl)anilino]-4-pyridyl]oxy]ethyl]acetamide] were, in that order, 4.3 °C and 767 nM.
The like results for `O=C(Nc1ccc(Nc2nccnc2-c2noc(=O)[nH]2)cc1)C1CCC1` [Example 27, N-[4-[[3-(5-oxo-4H-1,2,4-oxadiazol-3-yl)pyrazin-2-yl]amino]phenyl]cyclobutanecarboxamide] were, in that order, 0.4 °C and 1540 nM.
The like results for `Cc1cnc(Nc2ccc(C(F)(F)F)cc2)c(-c2noc(=O)[nH]2)n1` [Example 32, 3-[6-methyl-3-[4-(trifluoromethyl)anilino]pyrazin-2-yl]-4H-1,2,4-oxadiazol-5-one] were, in that order, 10.2 °C and 28 nM.
On to `O=c1[nH]c(-c2cc(Cl)cnc2Nc2ccc(C(F)(F)F)cc2)no1` [Example 44, 3-[5-chloro-2-[4-(trifluoromethyl)anilino]-3-pyridyl]-4H-1,2,4-oxadiazol-5-one], for which the ΔTm at 7 µM in test [1] came to 11.6 °C. In test [2], the IC50 is 225 nM.
For `O=c1[nH]c(-c2c(OCCc3ccccn3)ccnc2Nc2ccc(C(F)(F)F)cc2)no1` [Example 61, 3-[4-[2-(2-pyridyl)ethoxy]-2-[4-(trifluoromethyl)anilino]-3-pyridyl]-4H-1,2,4-oxadiazol-5-one] the same measures were 2.9 °C and 147 nM.
For the molecule `O=c1[nH]c(-c2nccnc2Nc2ccc(S(F)(F)(F)(F)F)cc2)no1` [Example 50, 3-[3-[4-(pentafluoro-λ6-sulfanyl)anilino]pyrazin-2-yl]-4H-1,2,4-oxadiazol-5-one], the shift in melting temperature (ΔTm) at 7 µM in test [1] stood at 12.2 °C. Also, the IC50 in test [2] is 37 nM.
